This assay deals with L1210. Nature of the assay: Cytotoxicity of compound was determined in terms of effective concentration required against murine L1210 cells. The class given is functional, cell-based. The following applies: Mus musculus.

Converted amounts (≈) assume the structure as drawn.

The values below come from ChEMBL document CHEMBL1127178, “Nucleosides and nucleotides. 117. A transition-state analogue in purine nucleotide biosynthesis: the design and synthesis of an imidazo[4,5-c]azepine nucleoside” (Bioorg Med Chem Lett, 1993).

What is called EC50 is the concentration needed to bring the measured effect to its halfway point. Lower therefore signals an effect from little substance. On to `O=C1NC(O)C=Cc2c1ncn2C1O[C@H](CO)C(O)[C@H]1O` (single isomer, unassigned), for which the half-maximal effective concentration (EC50) came to 5 mg/L (≈ 16.8 µM).
